From article PMC8709388, “In Search of Small Molecules That Selectively Inhibit MBOAT4” (Molecules, 2021)
Where a SMILES comes first, the peptide text is derived from it. Where no end group is shown, it is not given here. [ ]: non-standard residue; d: D form. The star is where a group is joined. Tle = CC(C)(C)[C@H](N)C(=O)O; Octanoyl = CCCCCCCC(=O)*; Dap = NC[C@H](N)C(=O)O; Sar = CNCC(=O)O

Key:
[1] = test system: GOAT; conditions: cited from earlier work
[2] = biological target: T1, mouse GOAT (Mus musculus, UniProt P0C7A3); test: Acyltransferase assay: inhibition of proghrelin octanoylation by GOAT in sf9 membrane fractions; type: biochemical; conditions: for IC50: read-out: IC50 (GOAT, membrane fraction, in-house); for GOAT inhibition in vitro (in words): membrane fractions
T1 construct: made in house; host or cells: sf9 insect cells (baculovirus, pFastBac1-mouseGOAT); total membrane fraction, not purified
T1 sequence (P0C7A3 1-435): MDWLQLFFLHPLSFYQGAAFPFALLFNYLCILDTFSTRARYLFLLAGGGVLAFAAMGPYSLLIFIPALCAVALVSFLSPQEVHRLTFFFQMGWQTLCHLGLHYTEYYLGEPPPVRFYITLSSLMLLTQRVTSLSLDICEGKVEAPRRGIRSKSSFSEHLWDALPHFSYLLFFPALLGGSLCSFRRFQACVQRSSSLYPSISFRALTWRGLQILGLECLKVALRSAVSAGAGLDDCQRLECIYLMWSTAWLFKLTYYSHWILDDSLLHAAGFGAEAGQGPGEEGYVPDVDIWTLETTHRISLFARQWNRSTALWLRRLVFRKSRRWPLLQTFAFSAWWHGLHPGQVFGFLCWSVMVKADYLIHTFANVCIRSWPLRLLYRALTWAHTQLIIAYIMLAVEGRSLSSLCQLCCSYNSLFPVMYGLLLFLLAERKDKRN
Method: pFastBac1-mouseGOAT and pGEX-GST-proGhrelin8His plasmid encoding for mouse proghrelin, fused to GST with TEV cleavage site to release proghrelin moiety, was a kind gift from the Brown and Goldstein laboratory. The BL21Gold E. coli chemically competent cells were transformed with the pGEX-GST-proGhrelin8His plasmid and selected on agar plates with ampicillin. A few colonies were used to inoculate 50 mL LB, and cultures were grown overnight at 37 °C. The next morning, 10 mL of overnight culture was used to inoculate 1L LB. A total of 4 flasks with 1L LB each were inoculated with 10 mL of the overnight culture, and bacterial cultures were grown at 37 °C until they reached OD600 ~ 0.6. The cultures were chilled on ice for 30 min and then 0.25 mM of IPTG was added to each culture. The cultures were then moved back to a shaker set to 18 °C and incubated overnight. Cells were harvested and resuspended in 200 mL buffer containing 25 mM Tris-HCl pH 8.0, 150 mM NaCl, 1 mM EDTA and 0.5 mg/mL lysozyme. The cell suspension was sonicated, and cell debris was removed by centrifugation. The soluble fraction was passed through glutathione resin by gravity. The resin was washed with 75 mL of lysis buffer without lysozyme. The GST-proGhrelin8His protein was eluted with lysis buffer without lysozyme, supplemented with 15 mM reduced glutathione, GSH. About 50 mg of target protein, as evaluated by SDS-PAGE, was eluted. The eluate was supplemented with 1 mM DTT and about 7.5 mg of recombinant GST-TEV protease (see below) was added. The solution was incubated at 16 °C overnight to allow complete release of proghrelin8His from GST. Prior to Ni-NTA chromatography, 5 mM CaCl2 was added, and the solution was spun down at 4000× g for 10 min. After elution from Ni-NTA resin, protein solution was dialyzed against buffer containing 10 mM Tris-HCl pH 8.5, 50 mM NaCl, 10% glycerol and 0.01% CHAPS using 3 kDa cutoff membrane with 3 buffer exchanges. The protein was quantified by absorbance at A280 and qualified by SDS-PAGE.
The baculovirus expression of mouse GOAT. DH10Bac E. coli strain (ThermoFisher, Waltham, MA, USA) was transformed with pFastBac1-mouseGOAT plasmid, and Bacmid DNA from 12 white colonies was analyzed by DNA sequencing and PCR reaction. All clones were transfected to sf9 cells and level of mGOAT expression was compared between clones from cells producing P2. The clone with the highest mGOAT expression level was used to produce P3. For membrane isolation, sf9 cells were seeded at 2–4 × 10^6 /mL in total 1 L volume of sf-900 serum-free medium (ThermoFisher) and infected with P3 virus. At day 2 post-infection, cells were harvested and resuspended in 40 mL of buffer containing 50 mM NaPi pH 7.2, 150 mM NaCl, 1 mM EDTA, 100 μM bis (4-nitrophenyl) phosphate, 2.5 μg/mL aprotinin, 10 μg/mL leupeptin, 10 μg/mL pepstatin A. Cell suspension was briefly sonicated and cell debris was removed by centrifugation at 3000× g for 10 min. Membrane fraction was collected from supernatant by centrifugation at 100,000× g for 1 h. Membrane pellet was resuspended in storage buffer (50 mM NaPi pH 7.2, 150 mM NaCl and 10% glycerol) and kept at −80 °C. Acyltransferase assay: The assay conditions included per 50 μL reaction: 50 μg of total sf9 membranes, various (for modality experiment) or fixed (for IC50) concentrations of recombinant proghrelin8His peptide and various concentrations of tested compound (for IC50), 100 μM palmitoyl CoA, 50 mM HEPES pH 7.0 and 1 μM [^3H] octanoyl CoA (~5.5 dpm/fmol—American Radioactive Chemicals). After incubation of the reaction mixture at 37C for 10 min, tubes were placed on ice and 10 μL of 1M HCl was added to each tube. Following the addition of 740 μL of cold quench buffer (50 mM NaPi pH 7.4, 10 mM Imidazole, 150 mM NaCl, 100 μM bis (4-nitrophenyl) phosphate, 1 mM phenylmethylsulfonyl fluoride and 0.1% Triton), 0.2 mL of 50% Ni-NTA slurry was added to each reaction. […]

[3] = Pharmacokinetics in mice; type: in vivo
[4] = sf9 membranes containing mouse GOAT, [3H]octanoyl CoA, proghrelin8His

Compound	IC50 [2, 4] [nM]	GOAT inhibition in vitro (in words) [2]	also measured
1: GOAT reaction product, acyl ghrelin, 28-residue lipopeptide octanoylated at Ser3 (GSS(Octanoyl)FLSPEHQRVQQRKESKKPPAKLQPR; UniProt Q9UBU3 24-51, looked up) [compound 1]	–	–	GOAT inhibition (in words) [1]: weakly inhibited
O=C(O)c1ccc2oc(SCc3ccc(Cl)cc3Cl)nc2c1 [compound 7]	–	–	mode of GOAT inhibition [1]: competed at the CoA site on GOAT
CCCCCCCC(=O)NC[C@H](NC(=O)[C@@H](NC(=O)CNC)C(C)(C)C)C(=O)N[C@@H](Cc1ccccc1)C(N)=O [compound 8] (H-[Sar][Tle][Dap](Octanoyl)F-NH2)	14	–	–
CCCCCCCC(=O)NC[C@H](NC(=O)[C@@H](NC(=O)CNC)C(C)(C)C)C(N)=O [compound 12] (H-[Sar]-[Tle]-[Dap](Octanoyl)-NH2)	> 1000	inactive	–
CCCCCCCC(=O)NC[C@H](NC(=O)[C@@H](NC(=O)CNC)C(C)(C)C)C(=O)N[C@@H](Cc1ccccc1)C(=O)N[C@@H](CC(C)C)C(N)=O [compound 13] (H-[Sar][Tle][Dap](Octanoyl)FL-NH2)	50	–	oral bioavailability [3]: low; pharmacokinetics [3]: poor
CCCCCCCC(=O)NC[C@H](NC(=O)[C@@H](NC(=O)CNC)C(C)(C)C)C(=O)N[C@@H](Cc1ccccc1)C(=O)N[C@@H](CC(C)C)C(=O)N[C@@H](CO)C(N)=O [compound 14] (H-[Sar][Tle][Dap](Octanoyl)FLS-NH2)	62	–	–
CCCCCCCC(=O)NC[C@H](NC(=O)[C@@H](NC(=O)CNC)C(C)(C)C)C(=O)N[C@@H](Cc1ccccc1)C(=O)N[C@@H](CC(C)C)C(=O)N[C@@H](CO)C(=O)N1CCC[C@H]1C(N)=O [compound 15] (H-[Sar][Tle][Dap](Octanoyl)FLSP-NH2)	96	–	–
CCCCOCC(=O)N1CCC(/C=C\c2c(C)nc3nonc3c2N)CC1 [compound 25, (Z)-1-(4-(2-(7-amino-5-methyl-[1,2,5]oxadiazolo[3,4-b]pyridin-6-yl)vinyl)piperidin-1-yl)-2-butoxyethan-1-one]	440	significantly impaired	–
C[C@H](NC(=O)c1ccnn1C)C(=O)N1CCC(CCCc2cc(N)c3nonc3n2)CC1 [compound 35, (S)-N-(1-(4-(3-(7-amino-[1,2,5]oxadiazolo[3,4-b]pyridin-5-yl)propyl)pip-eridin-1-yl)-1-oxopropan-2-yl)-1-methyl-1H-pyrazole-5-carboxamide]	–	significantly impaired	IC50 (GOAT, membrane fraction, in-house) [2, 4]: inactive
N-(((3S,6S,9S)-9-(2-aminoacetamido)-3-benzyl-10,10-dimethyl-5,8-dioxo-1,11-dioxa-4,7-diazacyclopentadec-13-en-6-yl)methyl)octanamide [17a]	–	–	mode of GOAT inhibition ([2]; reaction rates at varied substrate concentrations, fixed inhibitor concentration): competing for the peptide substrate
